ChEMBL document CHEMBL1201862, “PubChem BioAssay data set” (2004)
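Dose response: 5 concentrations. Exposure: 48 h. Format: 96-well plates. Endpoint: linear interpolation; highest concentration if not reached. GI50 marks 50% less growth.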 Activity calls are given as the source filed them. No stated cut-off is given here; in the data, active = GI50 up to about 1.1 µM and inactive = higher.

Tests used:
Test in all cases: DTP human tumour cell line panel, 48 h
786-0 = system: 786-0
A498 = system: A498
A549 = system: A549
ACHN = system: ACHN
BT-549 = system: BT-549
CAKI-1 = system: CAKI-1
CCRF-CEM = system: CCRF-CEM
COLO 205 = system: COLO 205
DU-145 = system: DU-145
EKVX = system: EKVX
HCT-116 = system: HCT-116
HCT-15 = system: HCT-15
HL-60 = system: HL-60
HOP-62 = system: HOP-62
HOP-92 = system: HOP-92
HT-29 = system: HT-29
Hs-578T = system: Hs-578T
IGROV-1 = system: IGROV-1
K562 = system: K562
KM12 = system: KM12
LOX IMVI = system: LOX IMVI
M14 = system: M14
MDA-MB-231 = system: MDA-MB-231
MDA-MB-435 = system: MDA-MB-435
MDA-N = system: MDA-N
MOLT-4 = system: MOLT-4
Malme-3M = system: Malme-3M
NCI-H226 = system: NCI-H226
NCI-H23 = system: NCI-H23
NCI-H460 = system: NCI-H460
NCI-H522 = system: NCI-H522
NCI/ADR-RES = system: NCI/ADR-RES
OVCAR-3 = system: OVCAR-3
OVCAR-4 = system: OVCAR-4
OVCAR-5 = system: OVCAR-5
OVCAR-8 = system: OVCAR-8
PC-3 = system: PC-3
RPMI-8226 = system: RPMI-8226
RXF 393 = system: RXF 393
SF-268 = system: SF-268
SF-295 = system: SF-295
SF-539 = system: SF-539
SK-MEL-28 = system: SK-MEL-28
SK-MEL-2 = system: SK-MEL-2
SK-MEL-5 = system: SK-MEL-5
SK-OV-3 = system: SK-OV-3
SN12C = system: SN12C
SNB-19 = system: SNB-19
SR = system: SR
SW-620 = system: SW-620
T47D = system: T47D
TK-10 = system: TK-10
U-251 = system: U-251
UACC-257 = system: UACC-257
UACC-62 = system: UACC-62
UO-31 = system: UO-31
HCC 2998 = system: HCC 2998
MCF7 = system: MCF7
SNB-75 = system: SNB-75

In the case of `C[C@@H]1[C@@H](c2ccccc2)O[B-](c2ccccc2)(c2ccccc2)[N+]1(C)C`, the GI50 (786-0) is reported as 66.7 µM (inactive), the GI50 (A498) is reported as 67.8 µM (inactive) and the GI50 (A549) is reported as > 100 µM (inactive). The GI50 (ACHN) was 50.1 µM (inactive), the GI50 (BT-549) was 43.6 µM (inactive) and the GI50 (CAKI-1) was 48.3 µM (inactive). The GI50 (CCRF-CEM) was 61.4 µM (inactive), the GI50 (COLO 205) was 33 µM (inactive) and the GI50 (DU-145) was > 100 µM (inactive). The GI50 (EKVX) was > 100 µM (inactive), the GI50 (HCT-116) was 59.3 µM (inactive) and the GI50 (HCT-15) was 58.7 µM. The GI50 (HL-60) was 66.1 µM (inactive), the GI50 (HOP-62) was > 100 µM (inactive) and the GI50 (HOP-92) was 25.4 µM (inactive). For the same compound, the GI50 (HT-29) was > 100 µM (inactive), the GI50 (Hs-578T) was 54.2 µM (inactive) and the GI50 (IGROV-1) was 96.8 µM (inactive). The GI50 (K562) was 33 µM (inactive), the GI50 (KM12) was > 100 µM (inactive) and the GI50 (LOX IMVI) was > 100 µM (inactive). For the same compound, the GI50 (M14) was 34.5 µM (inactive), the GI50 (MDA-MB-231) was > 100 µM (inactive) and the GI50 (MDA-MB-435) was 98.6 µM (inactive). The GI50 (MDA-N) was 54.1 µM (inactive), the GI50 (MOLT-4) was > 100 µM (inactive) and the GI50 (Malme-3M) was 78 µM (inactive). The GI50 (NCI-H226) was 41 µM (inactive), the GI50 (NCI-H23) was 90.6 µM (inactive) and the GI50 (NCI-H460) was > 100 µM (inactive). The GI50 (NCI-H522) was 58.2 µM (inactive), the GI50 (NCI/ADR-RES) was > 100 µM (inactive) and the GI50 (OVCAR-3) was 70.5 µM (inactive). The GI50 (OVCAR-4) was 56.4 µM (inactive), the GI50 (OVCAR-5) was > 100 µM (inactive) and the GI50 (OVCAR-8) was 99.5 µM (inactive). For the same compound, the GI50 (PC-3) was 22.8 µM (inactive), the GI50 (RPMI-8226) was 58.9 µM (inactive) and the GI50 (RXF 393) was 34.7 µM (inactive). For the same compound, the GI50 (SF-268) was > 100 µM (inactive), the GI50 (SF-295) was > 100 µM (inactive) and the GI50 (SF-539) was 55.7 µM (inactive). The GI50 (SK-MEL-28) was 58.3 µM (inactive), the GI50 (SK-MEL-2) was > 100 µM (inactive) and the GI50 (SK-MEL-5) was 27.5 µM (inactive). The GI50 (SK-OV-3) was > 100 µM (inactive), the GI50 (SN12C) was > 100 µM (inactive) and the GI50 (SNB-19) was > 100 µM (inactive). For the same compound, the GI50 (SR) was 53 µM (inactive), the GI50 (SW-620) was 62.7 µM (inactive) and the GI50 (T47D) was 54.5 µM (inactive). The GI50 (TK-10) was 54.7 µM (inactive), the GI50 (U-251) was > 100 µM (inactive) and the GI50 (UACC-257) was > 100 µM (inactive). For the same compound, the GI50 (UACC-62) was > 100 µM (inactive) and the GI50 (UO-31) was 22.7 µM (inactive).
With `COC(=O)C(Cc1c(C2Nc3ccccc3C2CC(NC(=O)CNC(C)=O)C(=O)OC)[nH]c2ccccc12)NC(=O)CNC(C)=O` (stereo not drawn) the GI50 (786-0) was > 100 µM (inactive), the GI50 (A498) was > 100 µM (inactive) and the GI50 (A549) was > 100 µM (inactive). The GI50 (ACHN) was > 100 µM (inactive), the GI50 (BT-549) was > 100 µM (inactive) and the GI50 (CAKI-1) was > 100 µM (inactive). For the same compound, the GI50 (CCRF-CEM) was > 100 µM (inactive), the GI50 (COLO 205) was > 100 µM (inactive) and the GI50 (DU-145) was > 100 µM (inactive). The GI50 (EKVX) was > 100 µM (inactive), the GI50 (HCC 2998) was > 100 µM (inactive) and the GI50 (HCT-116) was > 100 µM (inactive). For the same compound, the GI50 (HCT-15) was over 100 µM, the GI50 (HL-60) was > 26.6 µM (inactive) and the GI50 (HOP-92) was > 100 µM (inactive). For the same compound, the GI50 (HT-29) was > 100 µM (inactive), the GI50 (Hs-578T) was > 72.6 µM (inactive) and the GI50 (IGROV-1) was > 100 µM (inactive). For the same compound, the GI50 (K562) was > 100 µM (inactive), the GI50 (KM12) was > 100 µM (inactive) and the GI50 (LOX IMVI) was > 100 µM (inactive). For the same compound, the GI50 (M14) was > 100 µM (inactive), the GI50 (MCF7) was > 100 µM (inactive) and the GI50 (MDA-MB-231) was > 100 µM (inactive). For the same compound, the GI50 (MDA-MB-435) was > 100 µM (inactive), the GI50 (MDA-N) was > 100 µM (inactive) and the GI50 (Malme-3M) was > 100 µM (inactive). For the same compound, the GI50 (NCI-H226) was > 100 µM (inactive), the GI50 (NCI-H23) was > 100 µM (inactive) and the GI50 (NCI-H460) was > 100 µM (inactive). For the same compound, the GI50 (NCI-H522) was > 100 µM (inactive), the GI50 (NCI/ADR-RES) was > 100 µM (inactive) and the GI50 (OVCAR-4) was > 100 µM (inactive). For the same compound, the GI50 (OVCAR-5) was > 100 µM (inactive), the GI50 (OVCAR-8) was > 100 µM (inactive) and the GI50 (RPMI-8226) was > 100 µM (inactive). For the same compound, the GI50 (RXF 393) was > 100 µM (inactive), the GI50 (SF-268) was > 100 µM (inactive) and the GI50 (SF-295) was > 100 µM (inactive). The GI50 (SF-539) was > 100 µM (inactive), the GI50 (SK-MEL-28) was > 100 µM (inactive) and the GI50 (SK-MEL-2) was > 86.9 µM (inactive). For the same compound, the GI50 (SK-MEL-5) was > 100 µM (inactive), the GI50 (SK-OV-3) was > 100 µM (inactive) and the GI50 (SN12C) was > 100 µM (inactive). For the same compound, the GI50 (SNB-19) was > 100 µM (inactive), the GI50 (SNB-75) was 7.82 µM (inactive) and the GI50 (SR) was 16.3 µM (inactive). For the same compound, the GI50 (SW-620) was > 100 µM (inactive), the GI50 (T47D) was > 100 µM (inactive) and the GI50 (TK-10) was > 100 µM (inactive). For the same compound, the GI50 (U-251) was > 100 µM (inactive), the GI50 (UACC-257) was > 100 µM (inactive) and the GI50 (UACC-62) was > 100 µM (inactive). For the same compound, the GI50 (UO-31) was > 100 µM (inactive).
In the case of `C[C@H](CS)C(=O)N1c2ccccc2C[C@H]1C(=O)O`, the GI50 (786-0) is reported as > 100 µM (inactive), the GI50 (A498) is reported as > 100 µM (inactive) and the GI50 (A549) is reported as > 100 µM (inactive). For the same compound, the GI50 (ACHN) was > 100 µM (inactive), the GI50 (BT-549) was > 100 µM (inactive) and the GI50 (CAKI-1) was > 100 µM (inactive). For the same compound, the GI50 (CCRF-CEM) was > 100 µM (inactive), the GI50 (COLO 205) was > 100 µM (inactive) and the GI50 (DU-145) was > 100 µM (inactive). For the same compound, the GI50 (EKVX) was > 100 µM (inactive), the GI50 (HCC 2998) was 37.5 µM (inactive) and the GI50 (HCT-116) was > 100 µM (inactive). For the same compound, the GI50 (HCT-15) was over 100 µM, the GI50 (HL-60) was > 100 µM (inactive) and the GI50 (HOP-62) was > 100 µM (inactive). The GI50 (HT-29) was 97.1 µM (inactive), the GI50 (Hs-578T) was > 100 µM (inactive) and the GI50 (IGROV-1) was > 100 µM (inactive). The GI50 (K562) was > 100 µM (inactive), the GI50 (KM12) was > 100 µM (inactive) and the GI50 (MCF7) was > 100 µM (inactive). The GI50 (MDA-MB-231) was > 100 µM (inactive), the GI50 (MDA-N) was > 100 µM (inactive) and the GI50 (MOLT-4) was > 100 µM (inactive). The GI50 (NCI-H226) was > 100 µM (inactive), the GI50 (NCI-H23) was > 100 µM (inactive) and the GI50 (NCI-H460) was > 100 µM (inactive). For the same compound, the GI50 (NCI-H522) was > 100 µM (inactive), the GI50 (NCI/ADR-RES) was > 100 µM (inactive) and the GI50 (OVCAR-3) was > 100 µM (inactive). For the same compound, the GI50 (OVCAR-4) was > 100 µM (inactive), the GI50 (OVCAR-5) was > 100 µM (inactive) and the GI50 (OVCAR-8) was > 100 µM (inactive). For the same compound, the GI50 (PC-3) was > 100 µM (inactive), the GI50 (SF-268) was > 100 µM (inactive) and the GI50 (SF-295) was > 100 µM (inactive). For the same compound, the GI50 (SF-539) was > 100 µM (inactive), the GI50 (SK-MEL-28) was > 100 µM (inactive) and the GI50 (SK-MEL-2) was > 100 µM (inactive). For the same compound, the GI50 (SK-MEL-5) was > 100 µM (inactive), the GI50 (SK-OV-3) was > 100 µM (inactive) and the GI50 (SN12C) was > 100 µM (inactive). The GI50 (SNB-19) was > 100 µM (inactive), the GI50 (SNB-75) was > 100 µM (inactive) and the GI50 (SR) was > 100 µM (inactive). For the same compound, the GI50 (SW-620) was > 100 µM (inactive), the GI50 (T47D) was 56 µM (inactive) and the GI50 (TK-10) was > 100 µM (inactive). The GI50 (U-251) was > 100 µM (inactive), the GI50 (UACC-257) was > 100 µM (inactive) and the GI50 (UACC-62) was > 100 µM (inactive). For the same compound, the GI50 (UO-31) was > 100 µM (inactive).
